In general, IC50 refers to the point on the concentration scale where inhibition reaches its midpoint.

One assay relates to HIV-1IIIB (wild-type). As to conditions: HIV-1IIIB strain (wild-type virus).
A further assay deals with HIV-1. As to conditions: as described in the literature; cited from earlier work.

Consider `CC[C@H](C)[C@H](NC(=O)[C@H](CC(C)C)NC(=O)[C@H](CO)NC(=O)[C@H](Cc1c[nH]cn1)NC(=O)[C@@H](NC(=O)[C@H](CC(C)C)NC(=O)[C@H](CO)NC(=O)[C@@H](NC(=O)[C@H](Cc1ccc(O)cc1)NC(=O)[C@H](CC(N)=O)NC(=O)[C@H](CC(N)=O)NC(=O)[C@@H](NC(=O)[C@H](CCC(=O)O)NC(=O)[C@H](CCCNC(=N)N)NC(=O)[C@H](CC(=O)O)NC(=O)[C@H](Cc1c[nH]c2ccccc12)NC(=O)[C@H](CCC(=O)O)NC(=O)[C@H](CCSC)NC(=O)[C@H](Cc1c[nH]c2ccccc12)NC(C)=O)[C@@H](C)CC)[C@@H](C)O)[C@@H](C)CC)C(=O)N[C@@H](CCC(=O)O)C(=O)N[C@@H](CCC(=O)O)C(=O)N[C@@H](CO)C(=O)N[C@@H](CCC(N)=O)C(=O)N[C@@H](CC(N)=O)C(=O)N[C@@H](CCC(N)=O)C(=O)N[C@@H](CCC(N)=O)C(=O)N[C@@H](CCC(=O)O)C(=O)N[C@@H](CCCCN)C(=O)N[C@@H](CC(N)=O)C(=O)N[C@@H](CCC(=O)O)C(=O)N[C@@H](CCC(N)=O)C(=O)N[C@@H](CCC(=O)O)C(=O)N[C@@H](CC(C)C)C(=O)N[C@@H](CC(C)C)C(=O)NCC(=O)N[C@@H](CO)C(=O)NCC(=O)N[C@@H](CSCC(=O)O[C@H]1CC[C@@]2(C)C(=CC[C@H]3[C@@H]4CC[C@H]([C@H](C)CCCC(C)(C)O)[C@@]4(C)CC[C@@H]32)C1)C(N)=O` [C34-HC], for which, in the assay with HIV-1IIIB (wild-type), the “IC50 times lower than enfuvirtide” value is 25 times and the “IC90 times lower than enfuvirtide” value is given as 40 times.
With “WMEWDREINNYTSL-IHSLIEESQNQQEKNEQELL [C34]”, the 50% inhibitory concentration (IC50) in the assay on HIV-1 was 1.4 nM.

These data come from PMC6483092 (ACS infectious diseases, 2019).
